Measured values reported in patent publication EP0062704A1, “Cyclopropanecarboxylic-acid ester as an agent in the fight against larves of the Gasterophilidae family in Equidae” (HOECHST AKTIENGESELLSCHAFT, priority 1980, dated 1982).
Marks after values point to notes of the source that are not given here.

Legend:
[1] = tested on: Larven III der Magenbremse, Gasterophilus intestinalis; assay: In vitro test on larvae III of Gasterophilus intestinalis (5 min immersion, mortality count); conditions: 10 larvae immersed 5 min in 0,1 % active dilution, kept at about 37°C
Excerpt: Beispiel 2 : In vitro Test an Larven von Gasterophilus intestinalis
Die Verbindungen (S)-a-Cyan-3-phenoxybenzyl(1R)-cis-3-(2,2-dibromvinyl)-2,2-dimethylcyclopropancarboxylat, nachfolgend bezeichnet als Verbindung A, (S)-a-Cyan-3-phenoxybenzyl (1R)-cis-3-(2,2-dichlorvinyl)-2,2-dimethylcyclopropancarboxylat, nachfolgend bezeichnet als Verbindung B, (S)-o-Cyan-3-phenoxybenzyl(1R)-cis-3-(2', 2'-dichlor-1',2'-dibromäthyl)-2,2-dimethylcyclopropancarboxylat, nachfolgend bezeichnet als Verbindung C, werden in Zubereitungen nach Beispiel 1 a) so in Wasser verdünnt, daß die Verdünnungen 0,1 % der Wirkstoffe enthalten. Zum Vergleich wird Dimethyl-2,2,2-trichloro-1-hydroxyäthyl-phosphonat (Trichlorfon) in derselben Verdünnung verwendet.
Larven III der Magenbremse, Gasterophilus intestinalis, werden aus dem Magen eines geschlachteten Pferdes entnommen. Jeweils zehn Larven werden in Bechergläsern in die Verdünnungen für 5 Minuten eingetaucht. Zur Kontrolle werden 10 Larven in Wasser eingetaucht. Danach werden die Larven auf Filterpapier getrocknet und in Behälter aus Styropor verbracht, die unter einer Wärmelampe bei etwa 37°C aufbewahrt werden. Nach 1, 6, 24, 48, 72, 96 und 120 Stunden werden alle Larven untersucht und deren Mortalität protokolliert.

[2] = tested on: Gasterophilus nasalis; assay: In vivo test in horses infested with stomach bots: G. nasalis; conditions: 10 mg/kg by nasogastric tube; for %-Wirksamkeit: expelled and dead larvae as percent of all larvae present, horse; for noch im Magen festgeheftet: larvae at necropsy on day 7, horse; for Zahl der Larven im Kot Total: total of days 1-7, horse
Description: (§1) Beispiel 3: In vivo-Prüfung an Pferden mit Magendasselbefall
(§2) Zwei Pferde mit Körpergewichten von 190 kg und 142 kg werden mit den Verbindungen A bzw. C aus Beispiel II behandelt. Die Dosis beträgt 10 mg/kg Körpergewicht. Die sich aus der Dosis und der Konzentration der Arzneizubereitung nach Beispiel 2 zu errechnende Menge der Zubereitung wird im Volumenverhältnis 1 : 1 mit Wasser verdünnt und den Pferden mittels Nasenschlundsonde verabreicht.
(§3) Nach der Behandlung werden die Pferde in Einzelboxen aufgestellt. […] Vorhandene Dassellarven werden gezählt und ihre Artzugehörigkeit bestimmt. Am siebten Tag nach der Behandlung werden die Pferde getötet und der Magen-Darmtrakt auf das Vorhandensein noch angehefteter und toter Dassellarven untersucht.
(§4) Die Zahl der abgegangenen und toten Larven wird auf die Gesamtzahl vorhandener Larven prozentual bezogen und ihr Prozentsatz als "% Wirksamkeit" bezeichnet. Somit besagen 100 %, daß alle und 0 %, daß keine Larven abgetötet und abgetrieben werden.

[3] = tested on: Gasterophilus intestinalis; assay: In vivo test in horses infested with stomach bots: G. intestinalis; conditions: 10 mg/kg by nasogastric tube; for %-Wirksamkeit: expelled and dead larvae as percent of all larvae present, horse; for noch im Magen festgeheftet: larvae at necropsy on day 7, horse; for Zahl der Larven im Kot Total: total of days 1-7, horse
Description: as §1, §2, §3, §4

SMILES | Zahl toter Larven Stunden nach Behandlung ([1]; 1 h after treatment) | Zahl toter Larven Stunden nach Behandlung ([1]; 6 h after treatment) | Zahl toter Larven Stunden nach Behandlung ([1]; 24 h after treatment) | Zahl toter Larven Stunden nach Behandlung ([1]; 48 h after treatment) | Zahl toter Larven Stunden nach Behandlung ([1]; 72 h after treatment) | Zahl toter Larven Stunden nach Behandlung ([1]; 96 h after treatment) | Zahl toter Larven Stunden nach Behandlung ([1]; 120 h after treatment) | Zahl der Larven im Kot an den Tagen nach der Behandlung ([2]; day 1, horse) | Zahl der Larven im Kot an den Tagen nach der Behandlung ([2]; day 2, horse) | Zahl der Larven im Kot an den Tagen nach der Behandlung ([2]; day 3, horse) | Zahl der Larven im Kot an den Tagen nach der Behandlung ([2]; day 4, horse) | Zahl der Larven im Kot an den Tagen nach der Behandlung ([2]; day 5, horse) | Zahl der Larven im Kot an den Tagen nach der Behandlung ([2]; day 6, horse) | Zahl der Larven im Kot an den Tagen nach der Behandlung ([2]; day 7, horse) | %-Wirksamkeit [2] [%] | noch im Magen festgeheftet [2] | Zahl der Larven im Kot Total [2] | Zahl der Larven im Kot an den Tagen nach der Behandlung ([3]; day 1, horse) | Zahl der Larven im Kot an den Tagen nach der Behandlung ([3]; day 2, horse) | Zahl der Larven im Kot an den Tagen nach der Behandlung ([3]; day 3, horse) | further results
CC1(C)[C@H](C(=O)O[C@H](C#N)c2cccc(Oc3ccccc3)c2)[C@@H]1C(Br)C(Cl)(Cl)Br (stereo partly drawn) [Verbindung C, (S)-o-Cyan-3-phenoxybenzyl(1R)-cis-3-(2', 2'-dichlor-1',2'-dibromäthyl)-2,2-dimethylcyclopropancarboxylat] | 4 | 10 | 10 | 10 | 10 | 10 | 10 | 0 | 3 | 7 | 1 | 0 | 0 | 0 | 100 | 0 | 11 | 1 | 2 | 8 | Zahl der Larven im Kot an den Tagen nach der Behandlung ([3]; day 4, horse): 10; Zahl der Larven im Kot an den Tagen nach der Behandlung ([3]; day 5, horse): 7; Zahl der Larven im Kot an den Tagen nach der Behandlung ([3]; day 6, horse): 2; Zahl der Larven im Kot an den Tagen nach der Behandlung ([3]; day 7, horse): 0; %-Wirksamkeit [3]: 100%; noch im Magen festgeheftet [3]: 0; Zahl der Larven im Kot Total [3]: 30
CC1(C)[C@H](C(=O)O[C@H](C#N)c2cccc(Oc3ccccc3)c2)[C@@H]1C=C(Br)Br [Verbindung A, (S)-a-Cyan-3-phenoxybenzyl(1R)-cis-3-(2,2-dibromvinyl)-2,2-dimethylcyclopropancarboxylat] | 10 | 10 | 10 | 10 | 10 | 10 | 10 | 1 | 4 | 1 | 0 | 0 | 0 | 0 | 100 | 0 | 6 | 2 | 16 | 18 | Zahl der Larven im Kot an den Tagen nach der Behandlung ([3]; day 4, horse): 5; Zahl der Larven im Kot an den Tagen nach der Behandlung ([3]; day 5, horse): 0; Zahl der Larven im Kot an den Tagen nach der Behandlung ([3]; day 6, horse): 0; Zahl der Larven im Kot an den Tagen nach der Behandlung ([3]; day 7, horse): 0; %-Wirksamkeit [3]: 93%; noch im Magen festgeheftet [3]: 3; Zahl der Larven im Kot Total [3]: 41
CC1(C)[C@H](C(=O)O[C@H](C#N)c2cccc(Oc3ccccc3)c2)[C@@H]1C=C(Cl)Cl [Verbindung B, (S)-a-Cyan-3-phenoxybenzyl (1R)-cis-3-(2,2-dichlorvinyl)-2,2-dimethylcyclopropancarboxylat] | 10 | 10 | 10 | 10 | 10 | 10 | 10 |  |  |  |  |  |  |  |  |  |  |  |  |  | 
COP(=O)(OC)C(O)C(Cl)(Cl)Cl (centres unmarked) [Trichlorfon, Dimethyl-2,2,2-trichloro-1-hydroxyäthyl-phosphonat, reference compound] | 6* | 7* | 4* | 5* | 9* | 6* | 6* |  |  |  |  |  |  |  |  |  |  |  |  |  | 
